Measured values published in US20090062273A1, “3-H-pyrazolopyridines and salts thereof, pharmaceutical compositions comprising same, methods of preparing same and uses of same” (priority 2006, published 2009).

What was measured:
[1] = biological target: T1, human insuline receptor (Ins-R) (Homo sapiens, UniProt P06213); test: InsR HTRF assay (selectivity vs. Tie2 assay 2); assay type: biochemical; conditions: IC50 assay 4/IC50 assay 2
T1 construct: GST-tagged recombinant kinase domain of the human insuline receptor; GST; purchased ProQinase, Freiburg, Germany; host or cells: SF-9 cells
Description: Inhibitory activity of compounds against the kinase activity of the insulin receptor was quantified employing the Ins-R HTRF assay as described in the following paragraphs.
GST-tagged recombinant kinase domain of the human insuline receptor (Ins-R, purchase from ProQinase, Freiburg, Germany) expressed in SF-9 cells was used as kinase. As substrate for the kinase reaction biotinylated poly-(Glu,Tyr) (Cis biointernational, France) was used.
Ins-R was incubated for 20 min at 22° C. in the presence of different concentrations of test compounds in 5 μl assay buffer [50 mM Hepes/NaOH pH 7, 15 mM MnCl2, 1 mM dithiothreitol, 0.1 μM sodium ortho-vanadate, 0.015% (v/v) PEG20000, 10 μM adenosine-tri-phosphate (ATP), 0.3 μg/ml substrate, 1% (v/v) dimethylsulfoxide]. The concentration of Ins-R was adjusted depending of the activity of the enzyme lot and was chosen appropriate to have the assay in the linear range, typical concentrations were in the range of 10 pg/μL. The reaction was stopped by the addition of 5 μl of a solution of HTRF detection reagents (0.1 μM streptavidine-XLent and 1 nM PT66-Eu-Chelate, an europium-chelate labelled anti-phospho-tyrosine antibody from Perkin Elmer) in an aqueous EDTA-solution (80 mM EDTA, 0.2% (w/v) bovine serum albumin in 50 mM HEPES/NaOH pH 7.0).
(§1) The resulting mixture was incubated 1 h at 22° C. to allow the binding of the biotinylated phosphorylated peptide to the streptavidine-XLent and the PT66-Eu-Chelate. Subsequently the amount of phosphorylated substrate was evaluated by measurement of the resonance energy transfer from the PT66-Eu-Chelate to the streptavidine-XLent. Therefore, the fluorescence emissions at 620 nm and 665 nm after excitation at 350 nm was measured in a HTRF reader, e.g. a Rubystar (BMG Labtechnologies, Offenburg, Germany) or a ViewLux (Perkin-Elmer). The ratio of the emissions at 665 nm and at […] was taken as the measure for the amount of phosphorylated substrate. The data were normalised (enzyme reaction without inhibitor=0% inhibition, all other assay components but no enzyme=100% inhibition) and IC50 values were calculated by a 4 parameter fit using an inhouse software.

Tie2 = Tie2 (Homo sapiens, UniProt Q02763); test: Tie-2-Kinase HTRF-Assay without kinase preactivation; assay type: biochemical; design: fusion protein of GST and the intracellular domains of Tie-2; GST; made in house; host or cells: insect cells (Hi-5); conditions: GST-Tie-2 intracellular domains, 10 μM ATP
Description: Tie2-inhibitory activity of compounds of the present invention was quantified employing two Tie2 HTRF assay as described in the following paragraphs.
A recombinant fusion protein of GST and the intracellular domains of Tie-2, expressed in insect cells (Hi-5) and purified by Glutathion-Sepharose affinity chromatography was used as kinase. Alternatively, commercially available GST-Tie2-fusion protein (Upstate Biotechnology, Dundee, Scotland) can be used As substrate for the kinase reaction the biotinylated peptide biotin-Ahx-EPKDDAYPLYSDFG (C-terminus in amid form) was used which can be purchased e.g. from the company Biosynthan GmbH (Berlin-Buch, Germany). Detection of phosphorylated product is achieved specifically by a trimeric detection complex consisting of the phosphorylated substrate, streptavidin-XLent (SA-XLent) which binds to biotin, and Europium Cryptate-labeled anti-phosphotyrosine antibody PT66 which binds to phosphorylated tyrosine.
Tie-2 (3.5 ng/measurement point) was incubated for 60 min at 22° C. in the presence of 10 μM adenosine-tri-phosphate (ATP) and 1 μM substrate peptide (biotin-Ahx-EPKDDAYPLYSDFG-NH2) with different concentrations of test compounds (0 μM and concentrations in the range 0.001-20 μM) in 5 μl assay buffer [50 mM Hepes/NaOH pH 7, 10 mM MgCl2, 0.5 mM MnCl2, 1.0 mM dithiothreitol, 0.01% NP40, protease inhibitor mixture (“Complete w/o EDTA” from Roche, 1 tablet per 2.5 ml), 1% (v/v) dimethylsulfoxide]. The reaction was stopped by the addition of 5 μl of an aqueous buffer (25 mM Hepes/NaOH pH 7.5, 0.28% (w/v) bovine serum albumin) containing EDTA (90 mM) and the HTRF (Homogeneous Time Resolved Fluorescence) detection reagents streptavidine-XLent (0.2 μM, from Cis Biointernational, Marcoule, France) and PT66-Eu-Chelate (0.3 ng/μl; a europium-chelate labelled anti-phospho-tyrosine antibody from Perkin Elmer).
as §1, with “substrate peptide” for “substrate”, “Viewlux” for “ViewLux”, “substrate peptide.” for “substrate.”

Tie2, sequence (Q02763 770-1124 limits assumed, species assumed): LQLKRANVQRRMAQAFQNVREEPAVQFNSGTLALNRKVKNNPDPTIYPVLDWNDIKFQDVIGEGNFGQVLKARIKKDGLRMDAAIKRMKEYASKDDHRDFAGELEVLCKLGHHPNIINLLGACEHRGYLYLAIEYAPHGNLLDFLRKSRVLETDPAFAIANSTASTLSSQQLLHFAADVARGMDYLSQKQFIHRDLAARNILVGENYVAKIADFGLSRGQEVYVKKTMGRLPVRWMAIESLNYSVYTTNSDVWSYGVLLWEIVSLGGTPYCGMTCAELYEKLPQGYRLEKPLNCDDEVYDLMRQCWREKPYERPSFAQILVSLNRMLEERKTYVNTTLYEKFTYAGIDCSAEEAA
T1 sequence (P06213 1023-1298 limits assumed): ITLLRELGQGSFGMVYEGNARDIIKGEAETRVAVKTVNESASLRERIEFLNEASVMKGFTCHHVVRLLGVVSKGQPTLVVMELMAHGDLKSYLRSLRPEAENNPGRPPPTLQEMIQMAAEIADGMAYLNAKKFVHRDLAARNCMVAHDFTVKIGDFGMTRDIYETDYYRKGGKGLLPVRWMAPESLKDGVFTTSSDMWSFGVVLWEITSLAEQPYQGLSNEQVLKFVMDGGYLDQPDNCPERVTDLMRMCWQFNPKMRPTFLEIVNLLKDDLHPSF

Selectivity vs. InsR [1] | IC50 (Tie2) | Compound
>50fold | < 501 nM | CCn1ncc2c(-c3ccc(NC(=O)Nc4cc(C)ccc4F)c(F)c3)cncc21 [Example 11.3, 1-[4-(1-Ethyl-1H-pyrazolo[3,4-c]pyridin-4-yl)-2-fluoro-phenyl]-3-(2-fluoro-5-methyl-phenyl)-urea]
>50fold | < 501 nM | Cn1ncc2c(-c3ccc(NC(=O)Nc4cccc(C(F)(F)F)c4)c(F)c3)cncc21 [Example 3.1, 1-[2-Fluoro-4-(1-methyl-1H-pyrazolo[3,4-c]pyridin-4-yl)-phenyl]-3-(3-trifluoromethyl-phenyl)-urea]
>50fold | < 501 nM | Cc1ccc(F)c(NC(=O)Nc2ccc(-c3cncc4c3cnn4C)cc2)c1 [Example 1.3, 1-(2-Fluoro-5-methyl-phenyl)-3-[4-(1-methyl-1H-pyrazolo[3,4-c]pyridin-4-yl)-phenyl]-urea]
>50fold | < 501 nM | COCCn1ncc2c(-c3ccc(NC(=O)Nc4cc(C)ccc4F)cc3)cncc21 [Example 12.3, 1-(2-Fluoro-5-methyl-phenyl)-3-{4-[1-(2-methoxy-ethyl)-1H-pyrazolo[3,4-c]pyridin-4-yl]-phenyl}-urea]
>50fold | < 501 nM | Cn1ncc2c(-c3ccc(NC(=O)Nc4cc(C(F)(F)F)ccc4F)cc3)cncc21 [Example 1.2, 1-(2-Fluoro-5-trifluoromethyl-phenyl)-3-[4-(1-methyl-1H-pyrazolo[3,4-c]pyridin-4-yl)-phenyl]-urea]
>50fold | < 501 nM | COc1cccc(-n2nc(C(C)(C)C)cc2NC(=O)Nc2ccc(-c3cncc4c3cnn4C)cc2)c1 [Example 15.5, 1-[5-tert-Butyl-2-(3-methoxy-phenyl)-2H-pyrazol-3-yl]-3-[4-(1-methyl-1H-pyrazolo[3,4-c]pyridin-4-yl)-phenyl]-urea]
>50fold | < 501 nM | Cn1ncc2c(-c3ccc(NC(=O)Nc4cc(C(F)(F)F)ccc4F)c(F)c3)cncc21 [Example 6.3, 1-[2-Fluoro-4-(1-methyl-1H-pyrazolo[3,4-c]pyridin-4-yl)-phenyl]-3-(2-fluoro-5-trifluoromethyl-phenyl)-urea]
>50fold | < 501 nM | Cn1ncc2c(-c3ccc(NC(=O)Nc4cc(C(C)(C)C)on4)cc3)cncc21 [Example 13.2, 1-(5-tert-Butyl-isoxazol-3-yl)-3-[4-(1-methyl-1H-pyrazolo[3,4-c]pyridin-4-yl)-phenyl]-urea]
>50fold | < 501 nM | COCCn1ncc2c(-c3ccc(NC(=O)Nc4cccc(C(F)(F)F)c4)c(F)c3)cncc21 [Example 12.4, 1-{2-Fluoro-4-[1-(2-methoxy-ethyl)-1H-pyrazolo[3,4-c]pyridin-4-yl]-phenyl}-3-(3-trifluoromethyl-phenyl)-urea]
>50fold | < 501 nM | CN(C)C1CCN(c2ccc(C(F)(F)F)cc2NC(=O)Nc2ccc(-c3cncc4c3cnn4C)cc2)C1 (stereo not drawn) [Example 13.12, 1-[2-(3-Dimethylamino-pyrrolidin-1-yl)-5-trifluoromethyl-phenyl]-3-[4-(1-methyl-1H-pyrazolo[3,4-c]pyridin-4-yl)-phenyl]-urea]
>50fold | < 501 nM | CC(C)c1cc(NC(=O)Nc2ccc(-c3cncc4c3cnn4C)cc2)n(-c2cccc(F)c2)n1 [Example 15.1, 1-[2-(3-Fluoro-phenyl)-5-isopropyl-2H-pyrazol-3-yl]-3-[4-(1-methyl-1H-pyrazolo[3,4-c]pyridin-4-yl)-phenyl]-urea]
>50fold | < 501 nM | Cn1ncc2c(-c3ccc(NC(=O)Nc4cc(C(F)(F)F)ccn4)cc3)cncc21 [Example 1.9, 1-[4-(1-Methyl-1H-pyrazolo[3,4-c]pyridin-4-yl)-phenyl]-3-(4-trifluoromethyl-pyridin-2-yl)-urea]
